Measured values: patent US12018024B2, “Compounds and compositions for the treatment of cryptosporidiosis” (Novartis AG, priority 2020, dated 2024)

What was measured:
[1] = biological target: H.s. PI(4)K (Homo sapiens, UniProt Q9UBF8); test: H.s. PI(4)K IC50; assay type: biochemical; settings: read-out: (d) H.s.* PI(4)K IC50
[2] = system: Cryptosporidium parvum; test: Cytopathic effect (CPE) based assay, C. parvum-infected HCT-8 cells; assay type: cell-based; settings: HCT-8, 48 h, read-out: (b) C.p.* CPE EC50 (μM)
Description: Human ileocecal colorectal adenocarcinoma cells (HCT-8 [HRT-18] ATCC, CCL-34) were maintained in T-175 flasks (Corning, 431080) in complete growth medium (RPMI-1640 medium (Gibco, 11875) supplemented with 10% heat-inactivated horse serum (Gibco, 26050), 1× MEM non-essential amino acids (Gibco, 11140), 10 mM HEPES (Gibco, 15630), 100 units/mL penicillin, and 100 units/mL streptomycin) at 37° C. and 5% CO2 in a humidified incubator. Cultures were passaged twice weekly using 10 mL of 1× Phosphate-Buffered Saline (PBS) without Ca^2+ and Mg^2+ (Gibco, 20012) for washing and 3-5 mL per T-175 flask of TrypLE Express Enzyme (Gibco, 12604) for dissociation of adherent cells.
Cryptosporidium parvum oocysts purchased from the Sterling Laboratory, University of Arizona (Iowa isolate) were purified from infected calf feces using discontinuous sucrose and cesium chloride centrifugation gradients and stored in PBS solution containing 0.01% Tween 20, 100 units/mL penicillin and 100 units/mL gentamicin.
Excystaion and infection: Excystation and infection protocols were developed following established methods with some modifications (Gut & Nelson, 1999, Upton et al., 1995, Bessoff et al., 2013). Briefly, oocysts were primed in 1 mL of 10 mM hydrochloric acid in 1× Hank's Balanced Salt Solution (HBSS) (Gibco, 14025) for 10 minutes with agitation at 1000 rpm, 37° C. on an Eppendorf thermomixer, then washed twice with 1 mL of room temperature non-acidic 1× HBSS by centrifugation at 13,000 rpm for 3 minutes at 25° C. Primed oocysts were further excysted at a concentration of 1×10^6 oocysts/μL in parasite infection medium consisting of a pre-warmed and pre-gassed 1:1 formulation of Leibovitz's L-15 medium (Gibco, 11415) and UltraCULTURE medium (Lonza, 12-725F) supplemented with 2 mM sodium taurocholate (Sigma, 86339-1), 10% heat-inactivated horse serum, and 200 μM L-ascorbic acid (Sigma, 95210) at 25° C. for 10 minutes. HCT-8 monolayer cells were infected with excysted cryptosporidium at a specified multiplicity of infection (MOI). All dilutions for subsequent assays were performed in parasite infection medium without sodium taurocholate. Pre-excysted oocysts were enumerated microscopically using a C-Chip disposable hemocytometer (NanoEnTek, DHC-N01).
Compound and assay plate preparation: Compound powders were dissolved in neat DMSO (Fisher, D4121) to 10 mM and stored at 4° C. prior to dilution into source plates. Dilutions were carried out using a Microlab STAR liquid handler (Hamilton) to obtain compound source plates containing the ten-point or eight-point three fold dilutions starting from 10 mM in duplicates. Source plates were stored at 4° C. prior to spotting into assay plates. Before administration, all compound source plates were equilibrated to room temperature. A specified volume of compounds from source plate were spotted to assay plate using an Echo Acoustic liquid handler (LABCYTE, 550) so that the final DMSO concentration was less than 0.5%. Each assay plate a specified number of DMSO-treated negative control wells and a well-studied potent active compound at 100 nM as positive control. As a quality control, all positive and negative-control wells were used to calculate a Z′-value and signal to noise ratio (S:N) for each plate.
Cryptosporidium spp are obligate-intracellular parasites that infect intestinal epithelial cells and the host cell is killed upon parasite egress. […] The loss of epithelial cells is due to both rapid parasite invasion/multiplication/egress and also pro-inflammatory immune response (Adams et al., 1994, Griffiths et al., 1994). We have observed a consistent cytopathic effect (CPE) in HCT-8 cells with C. spp infection the loss of viability of the host cells using CellTiter-Glo reagent.
Confluent HCT-8 cells in T-175 flasks were directly infected with excysted oocysts at an MOI (host to parasite) of 1:2 for C. parvum and 1:4 for C. hominis. […]

[3] = biological target: C. parvum PI(4)K (Cryptosporidium parvum, UniProt Q5CVD3); test: CpPI(4)K enzymatic assay (Transcreener ADP2 FP); assay type: biochemical
Description: Baculovirus expression and purification of C. parvum phosphatidylinositol 4-kinase: The full-length coding sequence of C. parvum PI(4)K (cgd8_4500, 1114 amino acids) was codon-optimized for baculovirus expression, synthesized and cloned into pFastBac-HTb (Invitrogen 10584-027) in frame with the amino-terminal polyhistidine tag using the BamHI and HindIII restriction sites. Recombinant pFastBacHTb-CpPI(4)K bacmid clones were generated by site-specific transposition in E. coli DH10Bac (Invitrogen 10361-012). The bacmid sequence was confirmed by direct DNA sequencing to confirm a lack of mutations across the whole gene. The subsequent steps for bacmid isolation, transfection and selection of the recombinant viruses were performed according to the manufacturer's protocol (Bac-to-Bac system #10359, Invitrogen).
SF9 cells, cultured in […] serum-free medium, were transfected with recombinant baculovirus at 1/200 (v/v) and incubated at 27° C. for 72 h. The pellets were collected after centrifugation and re-suspended in cell lysis buffer (20 mM Tris-HCl, pH 7.5, 300 mM NaCl, 1 mM DTT, 20 mM imidazole, 0.01% Triton X-100 and 1× complete protease inhibitor cocktail without EDTA (Roche Diagnostics 04693116001)). The cell suspension was lysed by sonication and the clarified supernatant was loaded onto a 1 ml HisTrap affinity column (GE Healthcare) pre-equilibrated with buffer A (20 mM Tris-HCl, pH 7.5, 300 mM NaCl, 1 mM DTT, 20 mM Imidazole, and 1× complete protease inhibitor cocktail without EDTA). The column was washed with buffer B (buffer A containing 45 mM imidazole) and the bound protein of interest was eluted with buffer C (buffer A with 90 mM imidazole). The fractions containing CpPI(4)K were pooled, concentrated using Amicon Ultra-15 and purified by a gel-filtration column (Hi-Load 26/60 Superdex 200, GE Healthcare) equilibrated with 20 mM Tris, pH 7.5, 300 mM NaCl, 1 mM DTT and 1× protease inhibitor cocktail without EDTA. The concentrations of the purified protein (Mw 132.39 kda) was determined by using the protein molar extinction coefficient (ε280 nm=133,810 M^−1 cm^−1). Aliquots were flash frozen in liquid nitrogen and immediately stored at −80° C.
PI(4)K enzymatic Assay The CpPI(4)K enzymatic assay was performed as described earlier with a some modifications (McNamara et al., 2013). Briefly, L-α-phosphatidylinositol (Avanti Polar Lipid 840046), dissolved in 3% n-octylglucoside (Roche Diagnostics 10634425001), was used as the lipid substrate for the PI(4)K activity assay. CpPI(4)K was assayed using Transcreener ADP2 FP detection kit (BellBrook 3010) in a black, solid 384-well plate (Corning 3575). The final assay volume was 10 μl and contained 3 nM of the respective CpPI(4)K construct in 10 mM Tris, pH 7.5, 1 mM DTT, 3 μM ATP, 5 mM Mn2+, 0.05% Triton X-100 and 10 μM phosphatidylinositol/octylglucoside. The enzyme reaction was performed for 50 minutes at room temperature and was stopped by adding 10 μl of detection mix containing 1× stop buffer (50 mM HEPES, pH7.5, 400 mM NaCl, 20 mM EDTA, and 0.02% Brij-35), 2 nM AMP Alexa Fluor 633 tracer, and 20 μg ml^−1 ADP antibody. Fluorescence polarization measurements were performed on the Infinite M1000 plate reader (Tecan) with λex=635 nm and λem=680 nm (20-nm bandwidth). IC50 values were calculated using Graphpad Prism software.

H.s. PI(4)K, sequence (Q9UBF8 2-816 limits assumed): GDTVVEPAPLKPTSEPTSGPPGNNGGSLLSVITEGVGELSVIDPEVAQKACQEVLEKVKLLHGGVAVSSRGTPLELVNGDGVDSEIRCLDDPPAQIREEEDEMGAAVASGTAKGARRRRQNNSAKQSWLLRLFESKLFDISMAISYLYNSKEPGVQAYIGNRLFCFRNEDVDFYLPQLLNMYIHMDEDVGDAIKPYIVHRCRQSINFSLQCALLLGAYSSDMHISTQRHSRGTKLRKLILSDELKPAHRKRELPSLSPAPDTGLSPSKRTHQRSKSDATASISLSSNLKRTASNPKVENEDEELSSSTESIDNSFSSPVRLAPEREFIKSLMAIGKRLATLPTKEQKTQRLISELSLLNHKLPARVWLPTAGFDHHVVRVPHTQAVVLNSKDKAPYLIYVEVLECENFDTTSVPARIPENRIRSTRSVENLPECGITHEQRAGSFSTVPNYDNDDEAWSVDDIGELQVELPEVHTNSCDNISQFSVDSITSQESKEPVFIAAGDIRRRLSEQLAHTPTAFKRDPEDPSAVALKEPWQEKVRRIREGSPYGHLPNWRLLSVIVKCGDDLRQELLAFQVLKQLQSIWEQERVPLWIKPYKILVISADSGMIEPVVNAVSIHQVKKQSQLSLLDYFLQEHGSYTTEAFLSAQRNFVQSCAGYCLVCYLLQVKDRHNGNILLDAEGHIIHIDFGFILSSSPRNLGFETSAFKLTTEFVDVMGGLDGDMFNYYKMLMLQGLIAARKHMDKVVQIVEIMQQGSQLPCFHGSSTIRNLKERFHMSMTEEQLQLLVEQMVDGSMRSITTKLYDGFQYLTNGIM
C. parvum PI(4)K, sequence (Q5CVD3 entry or part of it): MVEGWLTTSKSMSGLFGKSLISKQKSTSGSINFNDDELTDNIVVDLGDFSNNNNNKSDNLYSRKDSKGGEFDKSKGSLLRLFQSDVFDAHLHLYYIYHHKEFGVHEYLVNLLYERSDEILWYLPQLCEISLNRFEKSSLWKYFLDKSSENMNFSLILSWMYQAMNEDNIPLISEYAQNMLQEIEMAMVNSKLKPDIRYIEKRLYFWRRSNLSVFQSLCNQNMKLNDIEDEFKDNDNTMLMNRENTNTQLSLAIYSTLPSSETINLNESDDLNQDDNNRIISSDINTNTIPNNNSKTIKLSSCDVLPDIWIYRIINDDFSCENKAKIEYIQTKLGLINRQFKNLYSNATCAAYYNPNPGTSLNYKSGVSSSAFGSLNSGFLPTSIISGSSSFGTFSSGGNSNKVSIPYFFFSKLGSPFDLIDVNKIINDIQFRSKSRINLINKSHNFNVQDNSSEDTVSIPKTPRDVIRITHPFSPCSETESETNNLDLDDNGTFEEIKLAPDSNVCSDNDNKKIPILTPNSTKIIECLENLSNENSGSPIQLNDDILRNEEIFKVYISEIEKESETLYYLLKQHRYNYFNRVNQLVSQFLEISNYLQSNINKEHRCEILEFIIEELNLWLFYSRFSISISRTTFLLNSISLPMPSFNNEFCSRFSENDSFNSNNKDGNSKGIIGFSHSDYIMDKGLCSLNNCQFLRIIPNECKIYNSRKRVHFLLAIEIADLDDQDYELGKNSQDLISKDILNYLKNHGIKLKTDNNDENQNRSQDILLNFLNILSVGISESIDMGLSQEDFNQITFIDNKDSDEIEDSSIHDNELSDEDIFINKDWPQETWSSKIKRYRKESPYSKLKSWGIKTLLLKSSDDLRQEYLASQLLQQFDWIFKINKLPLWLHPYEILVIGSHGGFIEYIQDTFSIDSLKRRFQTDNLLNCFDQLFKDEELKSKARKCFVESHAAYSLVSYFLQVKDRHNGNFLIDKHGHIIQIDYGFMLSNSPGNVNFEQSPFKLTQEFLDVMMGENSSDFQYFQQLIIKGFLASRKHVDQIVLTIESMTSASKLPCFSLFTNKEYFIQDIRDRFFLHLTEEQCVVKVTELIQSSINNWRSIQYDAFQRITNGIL

Row | SMILES | IC50 [1] [nM] | EC50 [2] [µM] | IC50 [3] [nM]
1 | COC(=O)c1cc(N(C)C(=O)c2ccn3ncc(-c4ccc(C(N)=O)cc4C)c3c2)ccc1Cl [Example 1.21, Methyl 2-chloro-5-(N-methyl-3-(2-methyl-4-(carbamoyl)phenyl)pyrazolo[1,5-a]pyridine-5-carboxamido)benzoate] | > 1000 | 0.1 to 1 | < 100
2 | CNC(=O)c1ccc(-c2cnn3ccc(C(=O)N(C)c4ccc(Cl)c(C(=O)OC)c4)cc23)cc1C [Example 1.22] | > 1000 | > 1 | 100 to 1000
3 | CCOC(=O)OC(C)OC(=O)c1cc(N(C)C(=O)c2ccn3ncc(-c4ccc(C(N)=O)cc4)c3c2)ccc1Cl (racemic) [Example 1.14, rac-1-((Ethoxycarbonyl)oxy)ethyl 5-(3-(4-carbamoylphenyl)-N-methylpyrazolo[1,5-a]pyridine-5-carboxamido)-2-chlorobenzoate] | > 1000 | > 1 | 100 to 1000
4 | COC(=O)c1cc(N(C)C(=O)c2ccn3ncc(-c4ccc(C(N)=O)cc4)c3c2)ccc1C#N [Example 1.27, Methyl 5-(3-(4-carbamoylphenyl)-N-methylpyrazolo[1,5-a]pyridine-5-carboxamido)-2-cyanobenzoate] | > 1000 | < 0.1 | < 100
5 | CNC(=O)c1ccc(-c2cnn3ccc(C(=O)N(C)c4ccc(Cl)c(C(=O)OCCN5CCOCC5)c4)cc23)cc1 [Example 1.19, 2-Morpholinoethyl 2-chloro-5-(N-methyl-3-(4-(methylcarbamoyl)phenyl)pyrazolo[1,5-a]pyridine-5-carboxamido)benzoate] | 100 to 1000 | 0.1 to 1 | < 100
6 | COC(=O)c1cc(N(C)C(=O)c2ccn3ncc(-c4ccc(C(N)=O)cc4)c3c2)ccc1OC(F)(F)F [Example 1.25, Methyl 5-(3-(4-carbamoylphenyl)-N-methylpyrazolo[1,5-a]pyridine-5-carboxamido)-2-(trifluoromethoxy)benzoate] | > 1000 | 0.1 to 1 | < 100
7 | CNC(=O)c1ccc(-c2cnn3ccc(C(=O)N(C)c4ccc(Cl)c(C(=O)O)c4)cc23)cc1 [Example 1.18, 2-Chloro-5-(N-methyl-3-(4-(methylcarbamoyl)phenyl)pyrazolo[1,5-a]pyridine-5-carboxamido)benzoic acid] | 100 to 1000 | > 1 | < 100
8 | COC(=O)c1cc(NC(=O)c2ccn3ncc(-c4ccc(C(N)=O)cc4)c3c2)ccc1Cl [Example 1.23, Methyl 5-(3-(4-carbamoylphenyl)pyrazolo[1,5-a]pyridine-5-carboxamido)-2-chlorobenzoate] | > 1000 | > 1 | > 1000
9 | CNC(=O)c1ccc(-c2cnn3ccc(C(=O)Nc4ccc(Cl)c(C(=O)OC)c4)cc23)cc1 [Example 1.24, Methyl 2-chloro-5-(3-(4-(methylcarbamoyl)phenyl)pyrazolo[1,5-a]pyridine-5-carboxamido)benzoate] | > 1000 | > 1 | > 1000
10 | CNC(=O)c1ccc(-c2cnc3cnc(C(=O)N(C)c4ccc(Cl)c(C(=O)OC)c4)cn23)cc1 [Example 2.1, Methyl 2-chloro-5-(N-methyl-3-(4-(methylcarbamoyl)phenyl)imidazo[1,2-a]pyrazine-6-carboxamido)benzoate] | > 1000 | 0.1 to 1 | < 100
11 | CN(C(=O)c1ccn2ncc(-c3ccc(C(N)=O)cc3)c2c1)c1ccc(Cl)c(C(=O)OCCN2CCOCC2)c1 [Example 1.08, 2-Morpholinoethyl 5-(3-(4-carbamoylphenyl)-N-methylpyrazolo[1,5-a]pyrdine-5-carboxamido)-2-chlorobenzoate] | > 1000 | 0.1 to 1 | < 100
12 | COC(=O)COC(=O)c1cc(N(C)C(=O)c2ccn3ncc(-c4ccc(C(N)=O)cc4)c3c2)ccc1Cl [Example 1.06, 2-Methoxy-2-oxoethyl 5-(3-(4-carbamoylphenyl)-N-methylpyrazolo[1,5-a]pyridine-5-carboxamido)-2-chlorobenzoate] | – | > 1 | < 100
13 | CN(C(=O)c1ccn2ncc(-c3ccc(C(N)=O)cc3)c2c1)c1ccc(Cl)c(C(=O)O)c1 [Example 1.03, 5-(3-(4-Carbamoylphenyl)-N-methylpyrazolo[1,5-a]pyridine-5-carboxamido)-2-chlorobenzoic acid] | 100 to 1000 | > 1 | < 100
